Data reported in ChEMBL document CHEMBL4219129, “Design, synthesis and biological evaluation of spiropyrimidinetriones oxazolidinone derivatives as antibacterial agents” (2018).
Values after ≈ are worked out from the molar mass of the structure shown.

Key:
Type in all cases: functional
Staphylococcus aureus [1] = assay: Antibacterial activity against PVL positive Staphylococcus aureus
Staphylococcus aureus [2] = assay: Antibacterial activity against Staphylococcus aureus ATCC 29213
Staphylococcus aureus [3] = assay: Antibacterial activity against Staphylococcus aureus FDA 209P
Staphylococcus aureus [4] = assay: Antibacterial activity against methicillin-resistant Staphylococcus aureus 562
Staphylococcus aureus [5] = assay: Antibacterial activity against methicillin-resistant Staphylococcus aureus 1201984
Staphylococcus aureus [6] = assay: Antibacterial activity against methicillin-resistant Staphylococcus aureus DB-00026
Staphylococcus aureus [7] = assay: Antibacterial activity against methicillin-resistant Staphylococcus aureus USA300 BAA-1556
Staphylococcus aureus [8] = assay: Antibacterial activity against Staphylococcus aureus Mu50 ATCC 700699
Staphylococcus aureus [9] = assay: Antibacterial activity against linezolid-resistant Staphylococcus aureus O-128
Staphylococcus aureus [10] = assay: Antibacterial activity against […] Staphylococcus aureus ATCC 13709 SMITH
[11] = tested on: Staphylococcus epidermidis; assay: Antibacterial activity against Staphylococcus epidermidis ATCC 12228
[12] = tested on: Staphylococcus epidermidis; assay: Antibacterial activity against methicillin-resistant Staphylococcus epidermidis ATCC 35984
[13] = tested on: Staphylococcus epidermidis; assay: Antibacterial activity against linezolid-resistant Staphylococcus epidermidis 1117174
[14] = tested on: Staphylococcus epidermidis; assay: Antibacterial activity against linezolid-resistant Staphylococcus epidermidis 1089191
Escherichia coli [15] = assay: Antibacterial activity against TolC-deficient Escherichia coli
Escherichia coli [16] = assay: Antibacterial activity against Escherichia coli MG1655; conditions: K-12 substr. MG1655

Row | Compound | MIC (Staphylococcus aureus [1]) [µg/mL] | MIC (Staphylococcus aureus [2]) [µg/mL] | MIC (Staphylococcus aureus [3]) [µg/mL] | MIC (Staphylococcus aureus [4]) [µg/mL] | MIC (Staphylococcus aureus [5]) [µg/mL] | MIC (Staphylococcus aureus [6]) [µg/mL] | MIC (Staphylococcus aureus [7]) [µg/mL] | MIC (Staphylococcus aureus [8]) [µg/mL] | MIC (Staphylococcus aureus [9]) [µg/mL] | MIC (Staphylococcus aureus [10]) [µg/mL] | MIC [11] [µg/mL] | MIC [12] [µg/mL] | MIC [13] [µg/mL] | MIC [14] [µg/mL] | MIC (Escherichia coli [15]) [µg/mL] | MIC (Escherichia coli [16]) [µg/mL]
1 | O=C1NC(=O)C2(Cc3cc(-c4ccc(N5C[C@H](CNC(=O)C(F)(F)F)OC5=O)cc4F)ccc3N3CCCC32)C(=O)N1 (stereo partly drawn) | 8 (≈ 13.6 µM) | 32 (≈ 54.3 µM) | 16 (≈ 27.1 µM) | 8 (≈ 13.6 µM) | 8 (≈ 13.6 µM) | 16 (≈ 27.1 µM) | 16 (≈ 27.1 µM) | 8 (≈ 13.6 µM) | 32 (≈ 54.3 µM) | 32 (≈ 54.3 µM) | 8 (≈ 13.6 µM) | 4 (≈ 6.79 µM) | 32 (≈ 54.3 µM) | 32 (≈ 54.3 µM) | 16 (≈ 27.1 µM) | > 32
2 | O=C1O[C@@H](CO)CN1c1ccc2c(c1)CC1(C(=O)NNC1=O)C1COCCN21 (stereo partly drawn) | > 32 | > 32 | > 32 | > 32 | > 32 | > 32 | > 32 | > 32 | > 32 | > 32 | > 32 | > 32 | 32 (≈ 82.4 µM) | > 32 | > 32 | > 32
3 | CC(=O)NC[C@H]1CN(c2ccc3c(c2)CC2(C(=O)NNC2=O)C2COCCN32)C(=O)O1 (stereo partly drawn) | > 32 | > 32 | > 32 | > 32 | > 32 | > 32 | > 32 | > 32 | > 32 | > 32 | > 32 | > 32 | 32 (≈ 74.5 µM) | > 32 | > 32 | > 32
4 | COC(=O)C1(C(=O)OC)Cc2cc(-c3ccc(N4C[C@H](CO)OC4=O)cc3F)ccc2N2CCOCC21 (stereo partly drawn) | 8 (≈ 15.5 µM) | 16 (≈ 31.1 µM) | 16 (≈ 31.1 µM) | 8 (≈ 15.5 µM) | 8 (≈ 15.5 µM) | 16 (≈ 31.1 µM) | 16 (≈ 31.1 µM) | 16 (≈ 31.1 µM) | > 32 | > 32 | 8 (≈ 15.5 µM) | 8 (≈ 15.5 µM) | > 32 | > 32 | 16 (≈ 31.1 µM) | > 32
5 | CCOC(=O)NC[C@H]1CN(c2ccc(-c3ccc4c(c3)CC3(C(=O)NC(=O)NC3=O)C3CCCN43)c(F)c2)C(=O)O1 (stereo partly drawn) | 8 (≈ 14.1 µM) | 8 (≈ 14.1 µM) | 8 (≈ 14.1 µM) | 4 (≈ 7.07 µM) | 8 (≈ 14.1 µM) | 8 (≈ 14.1 µM) | 8 (≈ 14.1 µM) | 4 (≈ 7.07 µM) | 32 (≈ 56.6 µM) | > 32 | 4 (≈ 7.07 µM) | 4 (≈ 7.07 µM) | > 32 | > 32 | 8 (≈ 14.1 µM) | > 32
6 | O=C1NC(=O)C2(Cc3cc(N4C[C@H](CO)OC4=O)ccc3N3CCOCC32)C(=O)N1 (stereo partly drawn) | > 32 | > 32 | > 32 | > 32 | > 32 | > 32 | > 32 | > 32 | > 32 | > 32 | > 32 | > 32 | 32 (≈ 76.9 µM) | > 32 | > 32 | > 32
7 | O=C1O[C@@H](CO)CN1c1ccc(-c2ccc3c(c2)CC2(C(=O)NNC2=O)C2CCCN32)c(F)c1 (stereo partly drawn) | > 32 | 4 to 32 (≈ 8.58 to 68.6 µM) | 32 (≈ 68.6 µM) | 2 to 32 (≈ 4.29 to 68.6 µM) | > 32 | 8 to 16 (≈ 17.2 to 34.3 µM) | 32 (≈ 68.6 µM) | 16 (≈ 34.3 µM) | > 32 | ≥ 32 | 2 to 32 (≈ 4.29 to 68.6 µM) | – | ≥ 32 | > 32 | > 32 | > 32
8 | CCC(=O)NC[C@H]1CN(c2ccc(-c3ccc4c(c3)CC3(C(=O)NC(=O)NC3=O)C3COCCN43)c(F)c2)C(=O)O1 (stereo partly drawn) | 16 (≈ 28.3 µM) | 8 (≈ 14.1 µM) | 16 (≈ 28.3 µM) | 4 (≈ 7.07 µM) | 16 (≈ 28.3 µM) | 16 (≈ 28.3 µM) | 16 (≈ 28.3 µM) | 4 (≈ 7.07 µM) | 32 (≈ 56.6 µM) | > 32 | 4 (≈ 7.07 µM) | 4 (≈ 7.07 µM) | 32 (≈ 56.6 µM) | > 32 | 4 (≈ 7.07 µM) | > 32
9 | CS(=O)(=O)NC[C@H]1CN(c2ccc(-c3ccc4c(c3)CC3(C(=O)NC(=O)NC3=O)C3COCCN43)c(F)c2)C(=O)O1 (stereo partly drawn) | 32 (≈ 54.5 µM) | 32 (≈ 54.5 µM) | 32 (≈ 54.5 µM) | 32 (≈ 54.5 µM) | 32 (≈ 54.5 µM) | 32 (≈ 54.5 µM) | 32 (≈ 54.5 µM) | 16 (≈ 27.2 µM) | > 32 | > 32 | 16 to 32 (≈ 27.2 to 54.5 µM) | 16 to 32 (≈ 27.2 to 54.5 µM) | > 32 | > 32 | 32 (≈ 54.5 µM) | > 32
